{"source": "PubChem BioAssay AID1259407", "about": "(Chemical Carcinogenesis Research Information System (CCRIS), 2018)", "test_system": "CCRIS mutagenicity, Ames/micronucleus/aberration tests", "experiment": "CCRIS mutagenicity studies", "note": "Calls of active or inactive are those of the source. The rule behind the calls is not given here."}
{"smiles": "O=[Se](O)O", "values": [{"measurement": "mutagenic call", "setting": "End Point: IN VIVO CHROMOSOMAL ABERRATIONS, Test System: TESTICULAR CELLS, Species: MOUSE, Strain/Sex: KUNMING/MALE, Route: DIET", "value": "selenite reduced number of chromosomal aberrations induced by mmc"}, {"measurement": "mutagenic call", "setting": "End Point: IN VIVO MICRONUCLEUS, Test System: BONE MARROW CELLS, POLYCHROMATIC ERYTHROCYTES, Species: MOUSE, Strain/Sex: KUNMING/FEMALE, Route: DIET", "value": "selenite reduced micronuclei induced by cyclophosphamide"}, {"measurement": "mutagenic call", "setting": "Test System: AMES SALMONELLA TYPHIMURIUM, Strain/Indicator: TA1535, Metabolic Activation: NONE, Method: STANDARD PLATE", "value": "active; positive"}, {"measurement": "mutagenic call", "setting": "Test System: CHINESE HAMSTER OVARY, Strain/Indicator: CHO-K1-BH4 (HGPRT)/6-THIOGUANINE, Metabolic Activation: NONE", "value": "active; positive"}, {"measurement": "mutagenic call", "setting": "Test System: E. COLI, Strain/Indicator: WP2 UVRA, Metabolic Activation: NONE, Method: SPOT TEST", "value": "inactive; negative"}, {"measurement": "mutagenic call", "setting": "Test System: MOUSE LYMPHOMA, Strain/Indicator: L5178Y (TK+/TK-), Metabolic Activation: NONE, Method: SUSPENSION/PLATE", "value": "active; positive. reevaluation of results: positive"}, {"measurement": "mutagenic call", "setting": "Test System: MOUSE LYMPHOMA, Strain/Indicator: L5178Y (TK+/TK-), Metabolic Activation: RAT, LIVER, S-9, AROCLOR 1254, Method: SUSPENSION/PLATE", "value": "active; positive. reevaluation of results: positive"}, {"measurement": "mutagenic call", "setting": "Test System: UDS HUMAN FIBROBLASTS, Strain/Indicator: THY INCORP (NON-S-PHASE), Metabolic Activation: MOUSE, LIVER, S-9, Method: AUTORADIOGRAPHY", "value": "active; positive"}]}
{"smiles": "N#C/C(=C/C=C/c1ccccc1)c1ccccc1Cl", "values": [{"measurement": "mutagenic call", "setting": "Test System: AMES SALMONELLA TYPHIMURIUM, Strain/Indicator: TA100, Metabolic Activation: NONE, Method: STANDARD PLATE", "value": "active; positive"}]}
{"smiles": "CC(=O)[O][Sn]([c]1ccccc1)([c]1ccccc1)[c]1ccccc1", "values": [{"measurement": "mutagenic call", "setting": "End Point: IN VIVO MICRONUCLEUS, Test System: BONE MARROW POLYCHROMATIC ERYTHROCYTES, Species: MOUSE, Strain/Sex: SWISS/MALE, FEMALE, Route: IP 2X IN AQUEOUS SUSPENSION WITHIN 24 HR", "value": "active; positive"}]}
{"smiles": "O=C(O)C1=NN(c2ccc(S(=O)(=O)O)cc2)C(=O)C1N=Nc1ccc(S(=O)(=O)O)cc1.[Al]", "note": "(stereo not drawn)", "values": [{"measurement": "mutagenic call", "setting": "Test System: AMES SALMONELLA TYPHIMURIUM, Strain/Indicator: TA97, Metabolic Activation: HAMSTER, LIVER, S-9, AROCLOR 1254 (10%), Method: PREINCUBATION", "value": "inactive; negative"}, {"measurement": "mutagenic call", "setting": "Test System: AMES SALMONELLA TYPHIMURIUM, Strain/Indicator: TA97, Metabolic Activation: HAMSTER, LIVER, S-9, AROCLOR 1254 (30%), Method: PREINCUBATION", "value": "inactive; negative"}, {"measurement": "mutagenic call", "setting": "Test System: AMES SALMONELLA TYPHIMURIUM, Strain/Indicator: TA97, Metabolic Activation: NONE, Method: PREINCUBATION", "value": "inactive; negative"}, {"measurement": "mutagenic call", "setting": "Test System: AMES SALMONELLA TYPHIMURIUM, Strain/Indicator: TA97, Metabolic Activation: RAT, LIVER, S-9, AROCLOR 1254 (10%), Method: PREINCUBATION", "value": "inactive; negative"}, {"measurement": "mutagenic call", "setting": "Test System: AMES SALMONELLA TYPHIMURIUM, Strain/Indicator: TA97, Metabolic Activation: RAT, LIVER, S-9, AROCLOR 1254 (30%), Method: PREINCUBATION", "value": "inactive; negative"}, {"measurement": "mutagenic call", "setting": "Test System: AMES SALMONELLA TYPHIMURIUM, Strain/Indicator: TA98, Metabolic Activation: HAMSTER, LIVER, S-9, AROCLOR 1254 (10%), Method: PREINCUBATION", "value": "inactive; negative"}, {"measurement": "mutagenic call", "setting": "Test System: AMES SALMONELLA TYPHIMURIUM, Strain/Indicator: TA98, Metabolic Activation: HAMSTER, LIVER, S-9, AROCLOR 1254 (30%), Method: PREINCUBATION", "value": "inactive; negative"}, {"measurement": "mutagenic call", "setting": "Test System: AMES SALMONELLA TYPHIMURIUM, Strain/Indicator: TA98, Metabolic Activation: NONE, Method: PREINCUBATION", "value": "inactive; negative"}, {"measurement": "mutagenic call", "setting": "Test System: AMES SALMONELLA TYPHIMURIUM, Strain/Indicator: TA98, Metabolic Activation: RAT, LIVER, S-9, AROCLOR 1254 (10%), Method: PREINCUBATION", "value": "inactive; negative"}, {"measurement": "mutagenic call", "setting": "Test System: AMES SALMONELLA TYPHIMURIUM, Strain/Indicator: TA98, Metabolic Activation: RAT, LIVER, S-9, AROCLOR 1254 (30%), Method: PREINCUBATION", "value": "inactive; negative"}, {"measurement": "mutagenic call", "setting": "Test System: AMES SALMONELLA TYPHIMURIUM, Strain/Indicator: TA100, Metabolic Activation: HAMSTER, LIVER, S-9, AROCLOR 1254 (10%), Method: PREINCUBATION", "value": "inactive; negative"}, {"measurement": "mutagenic call", "setting": "Test System: AMES SALMONELLA TYPHIMURIUM, Strain/Indicator: TA100, Metabolic Activation: HAMSTER, LIVER, S-9, AROCLOR 1254 (30%), Method: PREINCUBATION", "value": "inactive; negative"}, {"measurement": "mutagenic call", "setting": "Test System: AMES SALMONELLA TYPHIMURIUM, Strain/Indicator: TA100, Metabolic Activation: NONE, Method: PREINCUBATION", "value": "inactive; negative"}, {"measurement": "mutagenic call", "setting": "Test System: AMES SALMONELLA TYPHIMURIUM, Strain/Indicator: TA100, Metabolic Activation: RAT, LIVER, S-9, AROCLOR 1254 (10%), Method: PREINCUBATION", "value": "inactive; negative"}, {"measurement": "mutagenic call", "setting": "Test System: AMES SALMONELLA TYPHIMURIUM, Strain/Indicator: TA100, Metabolic Activation: RAT, LIVER, S-9, AROCLOR 1254 (30%), Method: PREINCUBATION", "value": "inactive; negative"}, {"measurement": "mutagenic call", "setting": "Test System: AMES SALMONELLA TYPHIMURIUM, Strain/Indicator: TA1535, Metabolic Activation: HAMSTER, LIVER, S-9, AROCLOR 1254 (10%), Method: PREINCUBATION", "value": "inactive; negative"}, {"measurement": "mutagenic call", "setting": "Test System: AMES SALMONELLA TYPHIMURIUM, Strain/Indicator: TA1535, Metabolic Activation: HAMSTER, LIVER, S-9, AROCLOR 1254 (30%), Method: PREINCUBATION", "value": "inactive; negative"}, {"measurement": "mutagenic call", "setting": "Test System: AMES SALMONELLA TYPHIMURIUM, Strain/Indicator: TA1535, Metabolic Activation: NONE, Method: PREINCUBATION", "value": "inactive; negative"}, {"measurement": "mutagenic call", "setting": "Test System: AMES SALMONELLA TYPHIMURIUM, Strain/Indicator: TA1535, Metabolic Activation: RAT, LIVER, S-9, AROCLOR 1254 (10%), Method: PREINCUBATION", "value": "inactive; negative"}, {"measurement": "mutagenic call", "setting": "Test System: AMES SALMONELLA TYPHIMURIUM, Strain/Indicator: TA1535, Metabolic Activation: RAT, LIVER, S-9, AROCLOR 1254 (30%), Method: PREINCUBATION", "value": "inactive; negative"}, {"measurement": "mutagenic call", "setting": "Test System: AMES SALMONELLA TYPHIMURIUM, Strain/Indicator: TA1537, Metabolic Activation: HAMSTER, LIVER, S-9, AROCLOR 1254 (30%), Method: PREINCUBATION", "value": "inactive; negative"}, {"measurement": "mutagenic call", "setting": "Test System: AMES SALMONELLA TYPHIMURIUM, Strain/Indicator: TA1537, Metabolic Activation: NONE, Method: PREINCUBATION", "value": "inactive; negative"}, {"measurement": "mutagenic call", "setting": "Test System: AMES SALMONELLA TYPHIMURIUM, Strain/Indicator: TA1537, Metabolic Activation: RAT, LIVER, S-9, AROCLOR 1254 (30%), Method: PREINCUBATION", "value": "inactive; negative"}]}
